Source: patent US9125862B2, “Methods for the treatment of Prader-Willi-like syndrome or non-organic failure to thrive (NOFITT) feeding disorder using an agonist of the oxytocin receptor” (Institut National de la Sante et de la Rechereche Medicale …, priority 2010, dated 2015)

Assays:
[1] = system: Magel2 KO neonates; experiment: Injection of oxytocin or vasopressin in Magel2 KO neonates: rescue of feeding and survival; assay type: in vivo, mouse; details: AVP injections, whatever the dose injected
Protocol: Three to 5 hours after delivery, wild type pups or pups issued from a cross between an heterozygote (+/−) male with wild type females were temporally removed (10 min) from their mother, weighted and given a single s.c. (in the ventral region at the level of floating ribs) injection (20 μl) of isotonic saline or 2 μg oxytocin (Phoenix Pharmaceuticals. Inc., Catalog No. 051-01) dissolved in isotonic saline (20 μl). […] Following the same protocol, we injected vasopressin (Phoenix Pharmaceuticals. Inc., Catalog No. 065-07) at different doses. At P2, pups were scarified to be genotyped.
The results obtained with the injection of SSR 126768A OTA let us think that we might restore a normal feeding behaviour in Magel2 KO newborns with an OT injection just after birth. Early neonatal manipulation of OT was reported in the literature without alterations of the postnatal development (Cushing, B. S., et Al., 2003; Yamamoto, Y., et al., 2004; Saito, O., et Al., 2007). Initially, 28 wild type newborns were injected with an isotonic saline (20 μl) and 4 of them died at P1. Another cohort of 28 wild type newborns, […] on hypothalamic nuclei one hour after the injection (Cushing, B. S., et Al., 2003; Yamamoto, Y., et al., 2004). We then decided to inject 2 μg of OT in Magel2 KO and wild type newborns, 3 to 5 hours after birth, the time when wild type newborns started to suckle but not the mutant neonates. […] The level of lethality is similar after an injection of saline solution (4/28 dead pups) or oxytocin (3/28 dead pups) and is in the range of lethality normally observed in wild type cohorts. In a second step, ten litters including a total of 37 wild type and 40 Magel2 KO neonates, were injected with an oxytocin solution. At P2, we observed that 95% (35/37) of wild type and 93% (37/40) of Magel2 mutant newborns survived with milk previously detected in their stomach at P1. In parallel, we controlled that the rescue of Magel2 KO neonates was specifically due to the oxytocin injection and not to the injection stress and/or handling of neonates. […]

[2] = system: wild-type C57Bl6/J newborns; experiment: Injection of SSR126768A (antagonist of the oxytocin receptor) in wild type newborns: feeding and lethality; assay type: in vivo, mouse
Protocol: A first cohort of C57B16 wild type newborns were removed from their mothers 1-1h30 after their birth and very rapidly were given a single s.c. injection (20 μl) of vehicle control (0.2% ethanol in distilled water) or 3 μg (in 20 μl of 0.2% ethanol in distilled water) of SSR126768A (OTA). […] of C57B16 wild type newborns were injected 12-24 hours after birth. The dose of OTA used was based on previous publications (Serradeil-Le Gal, C., et al., 2004).
We chose to use the Oxytocin antagonist SSR126768A (a gift from C. Serradeil-Le Gal, Sanofi-Synthélabo Recherche, Toulouse, France) because it was already well characterized.
Taking in account all the previous data, we hypothesized that OT deficiency might be responsible for the Magel2 KO phenotype at birth. Consequently, we decided to inject the SSR 126768A compound, a specific OT antagonist (OTA) with high affinity with the OT receptor (Serradeil-Le Gal, C., et al., 2004). We proceeded to a single injection of 3 μg (20 μl) in 68 wild-type C57B16/J newborns (9 litters), 1 to 1.5 hour after birth. In parallel, in the same conditions, we injected the vehicle […] in 48 wild-type C57B16/J newborns (7 litters). Then, 12 (+/−3) hours after the injection time, we observed than 54% (37/68) of newborns injected with OTA had no milk in their stomach versus 4% (2/48) of newborns injected with vehicle. At P1 (24-36 h old), we observed than 48% (33/68) of newborns injected with OTA were dead versus 4% (2/48) of newborns injected with vehicle control. […] Thus, the SSR 126768A OTA at a dose of 3 μg appeared to have a specific effect, preventing the feeding process and leading to death, only when it was injected in a specific window of time after birth, before the suckling activity was initiated. This phenotype simulates the Magel2 KO feeding phenotype at birth.

[3] = system: OTR; details: cited from earlier work
[4] = system: rats; details: cited from earlier work

Q: With `NC(=O)CC[C@@H]1NC(=O)[C@H](Cc2ccccc2)NC(=O)[C@H](Cc2ccc(O)cc2)NC(=O)[C@@H](N)CSSC[C@@H](C(=O)N2CCC[C@H]2C(=O)N[C@@H](CCCN=C(N)N)C(=O)NCC(N)=O)NC(=O)[C@H](CC(N)=O)NC1=O` [AVP, Arginine-Vasopressin] as the molecule, how does the “rescue of the phenotype of Magel2 deficient neonates” value [1] read?
A: did not rescue the phenotype

Q: With `CCN(Cc1cccnc1)C(=O)c1ccc(Cl)c([C@]2(C)C(=O)N(Cc3ccc(OC)cc3OC)c3ccc(Cl)cc32)c1.Cl` [SSR126768A, 4-chloro-3-[(3R)-(+)-5-chloro-1-(2,4-dimethoxybenzyl)-3-methyl-2-oxo-2,3-dihydro-1H-indol-3-yl]-N-ethyl-N-(3-pyridylmethyl)-benzamide, hydrochloride] as the molecule, how does the “survival 48 hours later” value ([2]; 3 μg in 20 μl injected 12-24 hours after birth, 42 wild-type pups) read?
A: all of them survived

Q: And the “newborns dead at P1” value ([2]; single s.c. injection of 3 μg, 1 to 1.5 hour after birth, P1 (24-36 h old), vehicle 4% (2/48))?
A: 48%

Q: What about the “newborns with no milk in their stomach” value ([2]; single s.c. injection of 3 μg, 1 to 1.5 hour after birth, observed 12 (+/−3) hours after injection, vehicle 4% (2/48)) of the same molecule?
A: 54%

Q: And the selectivity [3]?
A: high selectivity

Q: What about the “affinity for OTR” value ([3]; different species, including mouse) of the same molecule?
A: high affinity

Q: And the “lethality or secondary effect” value ([4]; 1, 3 or 10 μg/g in rats)?
A: without inducing lethality or any strong secondary effect

Q: And the “duration of effect on uterus” value ([4]; after administration of a dose as low as 3 μg/g)?
A: 24 h
